Experimental data taken from patent US10807969B2, “Meglumine salt formulations of 1-(5,6-dichloro-1h-benzo[d]imidazol-2-yl)-1h-pyrazole-4-carboxylic acid” (Janssen Pharmaceutica NV, priority 2011, dated 2020).

Test: Moisture uptake (adsorption/desorption vs relative humidity)
Type: physicochemical
Settings: for Desorption (90-0% RH): moisture loss; for Adsorption (40-90% RH): moisture uptake
Excerpt: The thermal properties, crystalline nature, apparent purity and moisture uptake of a 6.0 g batch of the free acid of compound (1) are summarized in Table 1.
Two broad endothermic peaks of the potassium salt of compound (1) were seen by DSC that can be associated with a dehydration event and melt/decomposition, respectively (Table 2).

SMILES | Desorption (90-0% RH) [%] | Adsorption (40-90% RH) | Hygroscopicity (salt prepared by re-slurry methodology)
O=C([O-])c1cnn(-c2nc3cc(Cl)c(Cl)cc3[nH]2)c1.[K+] [potassium salt of compound (1), potassium salt of 1-(5,6-dichloro-1H-benzoimidazol-2-yl)-1H-pyrazole-4-carboxylic acid] | −0.89 | +0.53% | non-hygroscopic
O=C(O)c1cnn(-c2nc3cc(Cl)c(Cl)cc3[nH]2)c1 [free acid of compound (1), 1-(5,6-Dichloro-1H-benzoimidazol-2-yl)-1H-pyrazole-4-carboxylic acid] | −0.96 | +0.59% | –
